Source: patent publication EP0339465A2, “Antibacterial composition for oral administration” (MEIJI SEIKA KAISHA LTD., priority 1988, dated 1989)

Assay: Stability in aqueous solution
Assay type: physicochemical
Details: aqueous solution of a pH value of 6 or above

Compound: CO/N=C(\C(=O)N[C@@H]1C(=O)N2C(C(=O)OCOC(=O)C(C)(C)C)=C(/C=C\c3scnc3C)CS[C@H]12)c1csc(N)n1 [substance ME1207, pivaloyloxymethyl-(6R,7R)-7[(Z)-2-(2-aminothiazol-4-yl)-2-methoxyiminoacetamide]-3-[(Z)-2-(4-methylthiazol-5-yl)ethenyl]cephem-4-carboxylate]
- stability in an aqueous solution: unstable
